The subject of data set [1] is T. vivax STIB 719 / ILRAD 560. Kind of data set: Ex vivo drug sensitivity assay for T. vivax (48 h). It counts as cell-based. Particulars: Trypanosoma vivax, STIB719, 48 h. The procedure:
Ex vivo drug sensitivity assay for T. vivax (48 h): Compounds were tested ex vivo against the STIB 719 / ILRAD 560 T. vivax (drug sensitive) strain which originated from the Y486 strain, isolated from a naturally infected bovine in 1976 in Zaria, Nigeria. Compounds were assayed in at least three separate, independent experiments and an 11-point dilution curve was used to determine the EC50 values. Bloodstream form trypanosomes were harvested from a highly parasitaemic mouse (via cardiac puncture) and were incubated with test compounds for 45 h at 37°C in a humidified atmosphere containing 5% CO2, supported in HMI-9 medium containing 20% bovine serum. Thereafter, Resazurin dye was added to monitor trypanosome viability as described in the preceding section.

A short description of data set [2]: Human liver microsome intrinsic clearance. It counts as in vitro ADME.
The subject of a further data set is T. congolense IL3000. Kind of data set: In vitro drug sensitivity assay for T. congolense (72 h). It counts as cell-based. Particulars: Trypanosoma congolense, IL3000 strain. The procedure:
In vitro drug sensitivity assay for T. congolense (72 h): Compounds were tested in vitro for efficacy against the IL3000 T. congolense (drug sensitive) strain which was originally derived from the Trans Mara I strain, isolated from a bovine in 1966 in Kenya. […] Compounds were assayed in at least three separate, independent experiments and an 11-point dilution curve was used to determine the EC50 values. Bloodstream form trypanosomes were supported in HMI-9 medium containing 20% bovine serum and were incubated with test compounds for 69 h at 34°C in a humidified atmosphere containing 5% CO2. Thereafter, 10 μL of Resazurin dye (12.5 mg in 100 mL of phosphate-buffered saline, Sigma-Aldrich, Buchs, Switzerland) was added for an additional 3 h. Plates were read using a fluorescence plate reader (Spectramax, Gemini XS, Bucher Biotec, Basel, Switzerland) using an excitation wavelength of 536 nm and an emission wavelength of 588 nm.

Data set [3] relates to T. cruzi amastigote (Tulahuen strain expressing β-galactosidase). In words: Intracellular T. cruzi assay in 3T3 cells (beta-galactosidase, 96 h). Conditions: for EC50: Trypanosoma cruzi, TULAHUEN, NIH3T3, 96 h, read-out: T. cruzi amastigote EC50. It counts as cell-based, Trypanosoma cruzi. The method, boiled down:
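3T3 cells in phenol-red-free DMEM with 2% FBS were infected with Tulahuen β-galactosidase trypomastigotes, 5×10^4 per well, and exposed to compounds from 50 μM in 1:2 serial dilutions, in triplicate. After 96 h at 37°C, 5% CO2, 500 μM CPRG in PBS with 0.5% NP40 was added for 4 h; absorbance was read at 590–595 nm.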

The subject of a further data set is T. brucei brucei CA427. Kind of data set: Murine model of acute HAT (T. b. brucei infected mice). Format: in vivo. As to the method:
Bloodstream form (BSF) T. brucei brucei CA427 parasites were maintained at densities below 1×10^6 cells/mL in HMI-9 media supplemented with 10% fetal bovine serum (Atlanta Biologicals), 10% SERUM PLUS (Sigma), and 1% Antibiotic-Antimycotic Solution (Corning cellgro) at 37°C, 5% CO2 [18]. Parasites were centrifuged at 5000 xg for 3 min at room temperature and resuspended in cold 1xPBS containing 1% glucose to yield a solution of 2.5×10^6 cells/mL. Correct cell density following resuspension was confirmed using a Z2 Coulter Counter (Beckman). Parasite viability was observed by motility with a Neubauer Bright-line hemocytometer. Cells were kept on ice until infection.
Compound 14 –on day 0, female Swiss-Webster mice (8–10 weeks old, 20–25 g, n = 4 per group) (Harlan) were infected i.p. with 2.5×10^5 trypanosomes by injecting 100 μL of resuspension using 26G needles. Day 1 to 3 post-infection, mice received a single i.p. dose of either drug vehicle (dimethylsulfoxide, 3.4 mL/kg) (Fisher Scientific) or drug (14, 25 mg/kg). Parasitemia was determined on days 2 and 3 post-infection by collecting 3 μL of blood from the tail vein.
Day 1 to 3 post-infection, mice received a single p.o. dose of either drug vehicle (10% NMP and 90% PEG, 10 mL/kg) (Fisher Scientific) or drug (22, 60 mg/kg). From days 4 to 6, the dose was increased to 70 mg/kg for the mice in the treatment group. Parasitemia was determined on days 3 to 6 post-infection by collecting 3 μL of blood from the tail vein.
Blood samples were mixed with 21 μL of RBC Lysis Solution (Qiagen) and incubated at room temperature for 15–45 min prior to observing for parasites by hemocytometer. Humane euthanasia by CO2 overdose followed by incision to form a bilateral pneumothorax was conducted on mice at study termination. All animal experimental protocols were approved and performed in accordance with the guidelines of the Institutional Animal Care and Use Committee (IACUC) at the University of Georgia.

Another data set concerns L. major amastigote. Kind of data set: L. major intracellular amastigote luciferase assay in RAW 264.7 macrophages. Format: cell-based, Leishmania major. Conditions: Leishmania major, RAW264.7; intracellular amastigotes in RAW 264.7 macrophages, 96 h. The method, boiled down:
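Murine RAW 264.7 macrophages were infected overnight with luciferase-expressing L. major metacyclic promastigotes (MOI 1:10). Non-internalized parasites were washed off before 96 h compound exposure (0.5–10,000 ng/mL) at 37°C, 5% CO2.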

Entries after “also recorded” stand apart in the source; their conditions may differ.

Consider two compounds from paper PMC6283615, “Anilinoquinoline based inhibitors of trypanosomatid proliferation” (PLoS Neglected Tropical Diseases, 2018).

Regarding `CN1CCN(c2ncc(-c3ccc4c(Nc5ccc(OCc6cccc(F)c6)c(Cl)c5)ccnc4c3)cn2)CC1` [Compound 14], the EC50 in data set [1] was found to be 200 nM; in the data set with T. congolense IL3000, 160 nM; in data set [3], 90 nM; in the data set with L. major amastigote, 1500 nM. In data set [2] (liver microsomes), this compound had a microsomal CLint of 54 µL/min/mg. Moreover, the “SI (T. cruzi)” value in data set [3] (selectivity index calculated relative to 3T3 cells) is 170. Besides, the “Toxicity in infected mice” value in the data set on T. brucei brucei CA427 (25 mg/kg i.p.) was “no evidence of toxicity”. In addition, in the data set on T. brucei brucei CA427 (25 mg/kg i.p., n = 4), the “Mice showing 10-fold reduction in parasitemia” value is recorded as 75%. Further, the “Mice with no detectable parasitemia” value with T. brucei brucei CA427 (25 mg/kg i.p., n = 4) is recorded as “one had no detectable parasitemia”. In the data set on T. brucei brucei CA427 (25 mg/kg i.p., vs DMSO vehicle), this compound returned a Reduction in parasitemia of 10 fold.

In the case of `CN1CCN(c2ncc(-c3ccc4c(Nc5cnccn5)ccnc4c3)cn2)CC1` [Compound 22], the concentration for a half-maximal effect (EC50) in data set [1] was found to be 720 nM; with T. congolense IL3000, 50 nM; in data set [3] it was 6000 nM; in the data set with L. major amastigote it was 2500 nM. Besides, in data set [2], the “Human Liver Microsome CLint” value turned out to be 180 µL/min/mg. In addition, in the data set with T. brucei brucei CA427 (p.o. once daily 60 mg/kg days 1-3, then 70 mg/kg, by day 5, vehicle 10% NMP 90% PEG), the “Parasitemia vs control group” value is given as “no statistically significant difference; also recorded: failed to affect parasitemia”. The “Toxicity in infected mice” value in the data set on T. brucei brucei CA427 (p.o. once daily 60 mg/kg, first three days) is “no signs of toxicity”.
